Consider two molecules from PMC8999917, “Structure–Activity Relationship of Synthetic Ginkgolic Acid Analogs for Treating Type 2 Diabetes by PTPN9 Inhibition” (International Journal of Molecular Sciences, 2022).

For this experiment, the target named is T1, DUSP9 (Homo sapiens, UniProt Q99956).
T1 construct: made in house; host or cells: Escherichia coli Rosetta (DE3)
T1 sequence (Q99956 1-384): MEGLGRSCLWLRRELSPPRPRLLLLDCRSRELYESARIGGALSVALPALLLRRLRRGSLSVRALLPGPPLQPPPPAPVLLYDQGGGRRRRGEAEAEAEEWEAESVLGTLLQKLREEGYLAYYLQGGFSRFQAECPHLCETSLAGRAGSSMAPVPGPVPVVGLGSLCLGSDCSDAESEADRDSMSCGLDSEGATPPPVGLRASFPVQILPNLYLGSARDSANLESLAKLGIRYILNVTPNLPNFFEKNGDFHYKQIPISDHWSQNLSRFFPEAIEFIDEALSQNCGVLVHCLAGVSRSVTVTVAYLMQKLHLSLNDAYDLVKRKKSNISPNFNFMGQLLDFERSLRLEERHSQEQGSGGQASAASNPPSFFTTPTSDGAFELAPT
Description: DUSP9 enzyme inhibition with DiFMUP substrate. The class given is biochemical. Particulars: DiFMUP 90 µM, DUSP9 200 nM; NA: no activity. As for the experimental part:
The purification and kinetic analyses of PTPN9 and DUSP9 (Ser277–581) were performed following methods described in the literature, with slight modifications. PAGE analysis data and enzyme kinetic constants are presented in Figure S1 and Table S1, respectively. Enzyme activity in the presence or absence of the compounds was measured using DiFMUP, a representative PTP fluorogenic substrate. First, the inhibitory effects of compounds 1–3 were evaluated using 50 µM PTPN9 and 20 µM DUSP9. There was an increase in the inhibitory activity of compound 1 for both enzymes as the number of CH2 units increased from 9 to 14 (Figure 2A,B).
Next, the IC50 values of the compounds, which induce a 50% inhibition of DiFMUP hydrolytic enzyme activity, were determined (Table 1). The IC50 values were determined from the dose–response enzyme inhibition curves of each compound. The dose–response curves for compounds 1e and 1f against PTPN9 and DUSP9, respectively, are presented in Figure 2C,D. Dose–response curves were also obtained for the other compounds (Figures S2 and S3).
The methods employed for PTP overexpression and purification have been described in a previous study. In brief, human PTPN9 and DUSP9 were cloned into a pET28a vector (Merk Millipore, Darmstadt, Germany) containing a hexahistidine (His6) tag or a maltose-binding protein (MBP) tag in its N-terminus (see Supplementary Materials). Recombinant genes were separately transformed into Escherichia coli Rosetta (DE3) (Merk Millipore, Darmstadt, Germany), and the overexpression of each gene was induced via the addition of 0.1 mM IPTG (Ducherfa Biochemie, Haarlem, RV, USA). After 16 h of incubation at 18 °C, cell pellets were obtained via centrifugation (3570× g at 4 °C for 15 min), resuspended in lysis buffer (50 mM Tris, pH: 7.5, 500 mM NaCl, 5% glycerol, 0.025% 2-mercaptoethanol, and 1 mM phenyl-methylsulfonyl fluoride (PMSF)), and lysed by ultrasonication. Subsequently, cell lysates were centrifuged at 29,820× g for 30 min at 4 °C; then, the supernatant was collected and incubated with a cobalt affinity resin (TALON® Metal Affinity Resin, Takara Korea, Seoul, Korea). After 1 h of incubation at 4 °C, the desired proteins were eluted by adding the lysis buffer supplemented with 100 mM imidazole. Samples were stored at –80 °C until use.
The enzymatic activities of purified PTPN9 and DUSP9 were measured using 6,8-difluoro-4-methylumbelliferyl phosphate (DiFMUP), the most widely used fluorogenic PTP substrate in the literature. To determine KM values, PTPN9 (0.15 nM) and DUSP9 (200 nM) were added to a reaction buffer (20 mM Bis-tris, pH: 7.0, 150 mM NaCl, 2.5 mM dithiothreitol (DTT), and 0.01% Triton X-100) containing DiFMUP (800, 400, 200, 100, 50, 25, 12.5, or 6.25 μM) in a 96-well black plate. The final reaction volume was 100 µL. The fluorescence intensity was continuously monitored for 10 min (Ex/Em = 355/460 nm) on a Victor™ X4 multilabel plate reader (Perkin Elmer, Norwalk, CT, USA). KM values were obtained using Lineweaver–Burk plots analysis.
To evaluate the enzyme inhibitory effects of GA and its analogs, 10 µl of the enzyme stock solution (1.5 nM PTPN9 and 2 µM DUSP9) in the reaction buffer was added into the mixture of DiFMUP (to a final concentration of 220 µM and 90 µM for PTPN9 and DUSP9, respectively) and each compound (to a final concentration of 50 µM and 20 µM for PTPN9 and DUSP9, respectively) was added to the reaction buffer. Enzyme activity was measured as described above. Half-inhibitory concentration (IC50) values were determined under similar conditions, except for the concentrations of the inhibitors (200, 100, 50, 25, 12.5, 6.25, or 3.125 µM for PTPN9 and 25, 12.5, 6.25, 3.125, 1.563, 0.782, or 0.391 µM for DUSP9). The dose-dependent curve was fitted to the four-parameter logistic regression equation, (y = a + (b – a)/(1 + (x/c)^d), to obtain IC50 values using the Kaleida Graph software Ver. 4.1.3. (Synergy Software Inc, PA, USA).

Turning to `CCCCCCCCCCCCCOc1cccc(O)c1C(=O)O` [Compound 1e], the IC50 came to 6.4 ± 0.87 µM.
Consider `CCCCCCCCCCCCCCCOc1cccc(O)c1C(=O)O` [Compound 1f], for which the IC50 came to 5.87 ± 0.55 µM.
